According to patent US20220127281A1, “HETEROARYL COMPOUNDS THAT INHIBIT G12C MUTANT RAS PROTEINS” (AstraZeneca AB, priority 2017, published 2022):
Read-outs that look alike come from different tables or passages of the source. Each block holds one molecule with its values, some of them ahead of it.

Tests used:
[1] = target: T1, GDP loaded biotinylated KRas^G12C protein (Homo sapiens, UniProt P01116, G12C); experiment: KRasG12C functional assay; type: biochemical; conditions: HTRF FRET readout of SOS-mediated nucleotide exchange and GST-Raf RBD binding, samples incubated for 4 hrs
T1 construct: biotin (biotinylated); made in house
T1 sequence (P01116 1-188 isoform P01116-2 G12C): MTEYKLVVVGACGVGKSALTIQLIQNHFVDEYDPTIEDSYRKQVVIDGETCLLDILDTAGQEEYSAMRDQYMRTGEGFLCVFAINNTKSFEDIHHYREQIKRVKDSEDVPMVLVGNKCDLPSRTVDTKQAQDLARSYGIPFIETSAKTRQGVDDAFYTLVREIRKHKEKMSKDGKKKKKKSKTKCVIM
How it was run: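 Biotinylated GDP-loaded KRasG12C exchange driven by 0.08 μM SOS with 0.6 μM GTPγS, read by HTRF between europium and XL665 as active KRas binds 20 nM GST-Raf RBD. Buffer: 20 mM HEPES pH 7.5, 5 mM MgCl2, 150 mM NaCl, 0.01% Tween 20. IC50 from normalised FRET dose-response fits.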

[2] = target: T1, GDP loaded biotinylated KRas^G12C protein; experiment: KRasG12C mass spectrometry adducting assay; type: binding; conditions: test compound final concentration 10 μM, 4 μM KRasG12C, react for 4 hours
How it was run: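 Covalent modification quantified as percent adduct: adduct peak area over summed apo plus adduct areas, from MaxEnt1-deconvoluted intact-protein LC–MS spectra. Protein was GDP-bound biotinylated KRasG12C in HEPES pH 7.5 buffer with 5 mM MgCl2 and 150 mM NaCl.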

[3] = read-out: KRasG12C functional assay IC50 value

SMILES: C=CC(=O)N1CCN2c3ncnc4cc(-c5cc(F)ccc5OC)c(Cl)c(c34)OC[C@@H]2C1 [Example 51, 1-[(8aS)-6-Chloro-5-(5-fluoro-2-methoxyphenyl)-8a,9,11,12-tetrahydropyrazino[2′,1′:3,4][1,4]oxazepino[5,6,7-de]quinazolin-10(8H)-yl]prop-2-en-1-one]
- IC50 [1, 3]: 5.09 µM
- KRasG12C M.S. Binding Mean adduct % [2]: 57%

SMILES: C=CC(=O)N1CCN2c3ncnc4cc(-c5ccc(O)cc5)c(Cl)c(c34)OC[C@@H]2C1 [Example 52, 1-[(8aS)-6-Chloro-5-(4-hydroxyphenyl)-8a,9,11,12-tetrahydropyrazino[2′,1′:3,4][1,4]oxazepino[5,6,7-de]quinazolin-10(8H)-yl]prop-2-en-1-one]
- IC50 [1, 3]: 5.36 µM
- KRasG12C M.S. Binding Mean adduct % [2]: 17%

SMILES: C=CC(=O)N1CCN2c3ncnc4cc(-c5cccc6[nH]ccc56)c(Cl)c(c34)OC[C@@H]2C1 [Example 53, 1-[(8aS)-6-Chloro-5-(1H-indol-4-yl)-8a,9,11,12-tetrahydropyrazino[2′,1′:3,4][1,4]oxazepino[5,6,7-de]quinazolin-10(8H)-yl]prop-2-en-1-one]
- IC50 ([1]; KRasG12C functional assay IC50 value (μM)): 1.69 µM
- KRasG12C M.S. Binding Mean adduct % [2]: 74%

SMILES: C=CC(=O)N1CCN2c3ncnc4cc(-c5ccc(N)cc5C)c(Cl)c(c34)OC[C@@H]2C1 [Example 54, 1-[(8aS)-5-(4-Amino-2-methylphenyl)-6-chloro-8a,9,11,12-tetrahydropyrazino[2′,1′:3,4][1,4]oxazepino[5,6,7-de]quinazolin-10(8H)-yl]prop-2-en-1-one]
- IC50 [1, 3]: 2.57 µM
- KRasG12C M.S. Binding Mean adduct % [2]: 60%

SMILES: C=CC(=O)N1CCN2c3ncnc4cc(-c5cnccc5C)c(Cl)c(c34)OC[C@@H]2C1 [Example 55, 1-[(8aS)-6-Chloro-5-(4-methylpyridin-3-yl)-8a,9,11,12-tetrahydropyrazino[2′,1′:3,4][1,4]oxazepino[5,6,7-de]quinazolin-10(8H)-yl]prop-2-en-1-one]
- IC50 [1, 3]: 4.03 µM
- KRasG12C M.S. Binding Mean adduct % [2]: 26%

SMILES: C=CC(=O)N1CCN2c3ncnc4cc(-c5ccc(O)c(C#N)c5)c(Cl)c(c34)OC[C@@H]2C1 [Example 56, 5-[(8aS)-10-Acryloyl-6-chloro-8,8a,9,10,11,12-hexahydropyrazino[2′,1′:3,4][1,4]oxazepino[5,6,7-de]quinazolin-5-yl]-2-hydroxybenzonitrile]
- IC50 [1, 3]: 4.39 µM
- KRasG12C M.S. Binding Mean adduct % [2]: 0%

SMILES: C=CC(=O)N1CCN2c3ncnc4cc(-c5cccc6ocnc56)c(Cl)c(c34)OC[C@@H]2C1 [Example 57, 1-[(8aS)-5-(1,3-Benzoxazol-4-yl)-6-chloro-8a,9,11,12-tetrahydropyrazino[2′,1′:3,4][1,4]oxazepino[5,6,7-de]quinazolin-10(8H)-yl]prop-2-en-1-one]
- IC50 [1, 3]: 2.42 µM
- KRasG12C M.S. Binding Mean adduct % [2]: 68%

SMILES: C=CC(=O)N1CCN2c3ncnc4cc(-c5cccc6ncoc56)c(Cl)c(c34)OC[C@@H]2C1 [Example 58, 1-[(8aS)-5-(1,3-Benzoxazol-7-yl)-6-chloro-8a,9,11,12-tetrahydropyrazino[2′,1′:3,4][1,4]oxazepino[5,6,7-de]quinazolin-10(8H)-yl]prop-2-en-1-one]
- IC50 [1, 3]: 7.09 µM
- KRasG12C M.S. Binding Mean adduct % [2]: 42%

SMILES: C=CC(=O)N1CCN2c3ncnc4cc(-c5cccc(CC#N)c5)c(Cl)c(c34)OC[C@@H]2C1 [Example 59, {3-[(8aS)-10-Acryloyl-6-chloro-8,8a,9,10,11,12-hexahydropyrazino[2′,1′:3,4][1,4]oxazepino[5,6,7-de]quinazolin-5-yl]phenyl}acetonitrile]
- IC50 [1, 3]: 5.85 µM
- KRasG12C M.S. Binding Mean adduct % [2]: 42%

SMILES: C=CC(=O)N1CCN2c3ncnc4cc(-c5cccc6[nH]ncc56)c(Cl)c(c34)OC[C@@H]2C1 [Example 61, 1-[(8aS)-6-Chloro-5-(1H-indazol-4-yl)-8a,9,11,12-tetrahydropyrazino[2′,1′:3,4][1,4]oxazepino[5,6,7-de]quinazolin-10(8H)-yl]prop-2-en-1-one]
- IC50 [1, 3]: 2.22 µM
- KRasG12C M.S. Binding Mean adduct % [2]: 64%

SMILES: C=CC(=O)N1CCN2c3ncnc4cc(-c5ccccc5O)c(Cl)c(c34)OC[C@@H]2C1 [Example 63, 1-[(8aS)-6-Chloro-5-(2-hydroxyphenyl)-8a,9,11,12-tetrahydropyrazino[2′,1′:3,4][1,4]oxazepino[5,6,7-de]quinazolin-10(8H)-yl]prop-2-en-1-one]
- IC50 [1, 3]: 0.896 µM
- KRasG12C M.S. Binding Mean adduct % [2]: 87%

SMILES: C=CC(=O)N1CCN2c3ncnc4cc(-c5ccc(F)cc5C)c(Cl)c(c34)OC[C@@H]2C1 [Example 64, 1-[(8aS)-6-Chloro-5-(4-fluoro-2-methylphenyl)-8a,9,11,12-tetrahydropyrazino[2′,1′:3,4][1,4]oxazepino[5,6,7-de]quinazolin-10(8H)-yl]prop-2-en-1-one]
- IC50 [1, 3]: 1.57 µM
- KRasG12C M.S. Binding Mean adduct % [2]: 75%

SMILES: C=CC(=O)N1CCN2c3ncnc4cc(-c5ccccc5CO)c(Cl)c(c34)OC[C@@H]2C1 [Example 65, 1-[(8aS)-6-Chloro-5-[2-(hydroxymethyl)phenyl]-8a,9,11,12-tetrahydropyrazino[2′,1′:3,4][1,4]oxazepino[5,6,7-de]quinazolin-10(8H)-yl]prop-2-en-1-one]
- IC50 [1, 3]: 3.46 µM
- KRasG12C M.S. Binding Mean adduct % [2]: 49%

SMILES: C=CC(=O)N1CCN2c3ncnc4cc(-c5cnccc5C#N)c(Cl)c(c34)OC[C@@H]2C1 [Example 67, 3-[(8aS)-10-Acryloyl-6-chloro-8,8a,9,10,11,12-hexahydropyrazino[2′,1′:3,4][1,4]oxazepino[5,6,7-de]quinazolin-5-yl]pyridine-4-carbonitrile]
- IC50 [1, 3]: 6.53 µM
- KRasG12C M.S. Binding Mean adduct % [2]: 17%

Next, values leading:

- IC50 [1, 3]: 0.956 µM
- KRasG12C M.S. Binding Mean adduct % [2]: 100%
SMILES: C=CC(=O)N1CCN2c3ncnc4cc(-c5ccc(F)cc5Cl)c(Cl)c(c34)OC[C@@H]2C1 [Example 50, 1-[(8aS)-6-Chloro-5-(2-chloro-4-fluorophenyl)-8a,9,11,12-tetrahydropyrazino[2′,1′:3,4][1,4]oxazepino[5,6,7-de]quinazolin-10(8H)-yl]prop-2-en-1-one]

- IC50 [1, 3]: 0.437 µM
- KRasG12C M.S. Binding Mean adduct % [2]: 100%
SMILES: C=CC(=O)N1CCN2c3ncnc4cc(-c5ccccc5F)c(Cl)c(c34)OC[C@@H]2C1 [Example 60, 1-[(8aS)-6-Chloro-5-(2-fluorophenyl)-8a,9,11,12-tetrahydropyrazino[2′,1′:3,4][1,4]oxazepino[5,6,7-de]quinazolin-10(8H)-yl]prop-2-en-1-one]

- IC50 [1, 3]: 0.355 µM
- KRasG12C M.S. Binding Mean adduct % [2]: 100%
SMILES: C=CC(=O)N1CCN2c3ncnc4cc(-c5cccc(F)c5F)c(Cl)c(c34)OC[C@@H]2C1 [Example 62, 1-[(8aS)-6-Chloro-5-(2,3-difluorophenyl)-8a,9,11,12-tetrahydropyrazino[2′,1′:3,4][1,4]oxazepino[5,6,7-de]quinazolin-10(8H)-yl]prop-2-en-1-one]

- IC50 [1, 3]: 1.45 µM
- KRasG12C M.S. Binding Mean adduct % [2]: 84%
SMILES: C=CC(=O)N1CCN2c3ncnc4cc(-c5ccc(F)cc5F)c(Cl)c(c34)OC[C@@H]2C1 [Example 66, 1-[(8aS)-6-Chloro-5-(2,4-difluorophenyl)-8a,9,11,12-tetrahydropyrazino[2′,1′:3,4][1,4]oxazepino[5,6,7-de]quinazolin-10(8H)-yl]prop-2-en-1-one]

- IC50 [1, 3]: 1.47 µM
- KRasG12C M.S. Binding Mean adduct % [2]: 62%
SMILES: C=CC(=O)N1CCN2c3ncnc4cc(-c5ccccc5C#N)c(Cl)c(c34)OC[C@@H]2C1 [Example 68, 2-[(8aS)-10-Acryloyl-6-chloro-8,8a,9,10,11,12-hexahydropyrazino[2′,1′:3,4][1,4]oxazepino[5,6,7-de]quinazolin-5-yl]benzonitrile]

- IC50 [1, 3]: 0.445 µM
- KRasG12C M.S. Binding Mean adduct % [2]: 67%
SMILES: C=CC(=O)N1CCN2c3nc(N4CCOCC4)nc4cc(-c5c(C)ccc6[nH]ncc56)c(Cl)c(c34)OC[C@@H]2C1 [Example 70, 1-[(8aS)-6-chloro-5-(5-methyl-1H-indazol-4-yl)-2-(morpholin-4-yl)-8a,9,11,12-tetrahydropyrazino[2′,1′:3,4][1,4]oxazepino[5,6,7-de]quinazolin-10 (8H)-yl]prop-2-en-1-one]

- IC50 [1, 3]: 0.019 µM
- KRasG12C M.S. Binding Mean adduct % [2]: 57%
SMILES: C=CC(=O)N1CCN2c3nc(N4CC(N(C)C)C4)nc4cc(-c5c(C)ccc6[nH]ncc56)c(Cl)c(c34)OC[C@@H]2C1 [Example 75, 1-((8aS)-6-chloro-2-(3-(dimethylamino)azetidin-1-yl)-5-(5-methyl-1H-indazol-4-yl)-8a,9,11,12-tetrahydropyrazino[2′,1′:3,4][1,4]oxazepino[5,6,7-de]quinazolin-10 (8H)-yl)prop-2-en-1-one]

- IC50 [1, 3]: 0.037 µM
- KRasG12C M.S. Binding Mean adduct % [2]: 81%
SMILES: C=CC(=O)N1CCN2c3nc(NCCN(C)C)nc4cc(-c5c(C)ccc6[nH]ncc56)c(Cl)c(c34)OC[C@@H]2C1 [Example 78, 1-((8aS)-6-Chloro-2-((2-(dimethylamino)ethyl)amino)-5-(5-methyl-1H-indazol-4-yl)-8a,9,11,12-tetrahydropyrazino[2′,1′:3,4][1,4]oxazepino[5,6,7-de]quinazolin-10 (8H)-yl)prop-2-en-1-one]
